Assay results from patent US11596639B2, “Substituted indole Mcl-1 inhibitors” (Vanderbilt University, priority 2016, dated 2023).
Like-named read-outs stand apart in the source and are kept apart here.

Experiments:
[1] = system: H929 human cancer cell lines; assay: Cellular viability / proliferation (Cell TiterGlo, 72 h); assay type: cell-based
Method in brief: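 Compounds were added as 2-fold serial dilutions from 50 μM (final DMSO <1%) to H929 cells seeded 1,000 per well in 10% FBS medium one day earlier.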

Mcl-1 = Mcl-1 (Homo sapiens (Human), UniProt Q07820); assay: TR-FRET binding assay, FITC-Bak peptide and MBP-tagged Mcl-1; details: read-out: Ki for Inhibition of Mcl-1 by TR-FRET assay
Procedure: Compounds are diluted in DMSO in a 16-point, semilog serial dilution scheme. […] The plate was mixed and incubated for 3 hours at room temperature. […] TR-FRET signal is plotted and IC50 and Ki values are calculated in the same manner as the fluorescence polarization anisotropy based competition assays.

[2] = Homo sapiens, NCI-H929, 72 h, read-out: GI50 on cellular proliferation of H929 human cancer cell lines, H929 cells, 72 h, Cell TiterGlo, 10% FBS

Sequence of Mcl-1 (Q07820 172-327): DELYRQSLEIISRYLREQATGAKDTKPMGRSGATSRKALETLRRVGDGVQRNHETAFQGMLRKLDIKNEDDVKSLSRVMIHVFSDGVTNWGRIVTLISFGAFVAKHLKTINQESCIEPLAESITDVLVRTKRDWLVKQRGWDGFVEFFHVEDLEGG

## COCc1cc(N2C[C@@H](C)n3c(c(CCCOc4cc(C)c(Cl)c(C)c4)c4ccc(Cl)c(-c5c(C)nn(C)c5C)c43)C2=O)c2c(c1)cc(C(=O)O)n2C [Example 607, (R)-7-(7-chloro-10-(3-(4-chloro-3,5-dimethylphenoxy)propyl)-4-methyl-1-oxo-6-(1,3,5-trimethyl-1H-pyrazol-4-yl)-3,4-dihydropyrazino[1,2-a]indol-2(1H)-yl)-5-(methoxymethyl)-1-methyl-1H-indole-2-carboxylic acid]
[1]; [2]
  GI50: < 0.2 µM
Mcl-1
  Ki: < 0.0002 µM

## Cc1cc(OCCCc2c3n(c4c(-c5c(C)nn(C)c5C)c(Cl)ccc24)[C@H](C)CN(c2cn(C)c4ccc(C(=O)O)nc24)C3=O)cc(C)c1Cl [Example 489, (R)-3-(7-Chloro-10-(3-(4-chloro-3,5-dimethylphenoxy)propyl)-4-methyl-1-oxo-6-(1,3,5-trimethyl-1H-pyrazol-4-yl)-3,4-dihydropyrazino[1,2-a]indol-2(1H)-yl)-1-methyl-1H-pyrrolo[3,2-b]pyridine-5-carboxylic acid]
[1]; [2]
  GI50: < 0.2 µM
Mcl-1
  Ki: < 0.0002 µM

## Cc1cc(OCCCc2c3n(c4c(-c5c(C)nn(C)c5C)c(Cl)ccc24)[C@H](C)CN(c2cc(CO)cc4c(C(=O)O)cn(C)c24)C3=O)cc(C)c1Cl [Example 506, (R)-7-(7-Chloro-10-(3-(4-chloro-3,5-dimethylphenoxy)propyl)-4-methyl-1-oxo-6-(1,3,5-trimethyl-1H-pyrazol-4-yl)-3,4-dihydropyrazino[1,2-a]indol-2(1H)-yl)-5-(hydroxymethyl)-1-methyl-1H-indole-3-carboxylic acid]
[1]; [2]
  GI50: 1.3 µM
Mcl-1
  Ki: < 0.0002 µM

## Cc1cc(OCCCc2c3n(c4c(-c5c(C)ncnc5C)c(Cl)ccc24)[C@H](C)CN(c2cn(C)c4ccc(-c5ncccn5)cc24)C3=O)cc(C)c1Cl [Example 642, (R)-7-Chloro-10-(3-(4-chloro-3,5-dimethylphenoxy)propyl)-6-(4,6-dimethylpyrimidin-5-yl)-4-methyl-2-(1-methyl-5-(pyrimidin-2-yl)-1H-indol-3-yl)-3,4-dihydropyrazino[1,2-a]indol-1(2H)-one]
[1]; [2]
  GI50: 0.79 µM
Mcl-1
  Ki: 0.003 µM

## Cc1cc(OCCCc2c3n(c4c(-c5c(C)nc(CN6CCOCC6)nc5C)c(Cl)ccc24)[C@H](C)CN(c2cn(C)c4ccc(-c5ncn(C)n5)cc24)C3=O)cc(C)c1Cl [Example 503, (R)-7-chloro-10-(3-(4-chloro-3,5-dimethylphenoxy)propyl)-6-(4,6-dimethyl-2-(morpholinomethyl)pyrimidin-5-yl)-4-methyl-2-(1-methyl-5-(1-methyl-1H-1,2,4-triazol-3-yl)-1H-indol-3-yl)-3,4-dihydropyrazino[1,2-a]indol-1(2H)-one]
[1]; [2]
  GI50: < 0.2 µM
Mcl-1
  Ki: 0.0037 µM

## Cc1cc(N2C[C@@H](C)n3c(c(CCCOc4cc(C)c(Cl)c(C)c4)c4ccc(Cl)c(-c5c(C)nn(C)c5C)c43)C2=O)c2ncc(C(=O)O)cc2c1 [Example 658, (R)-8-(7-chloro-10-(3-(4-chloro-3,5-dimethylphenoxy)propyl)-4-methyl-1-oxo-6-(1,3,5-trimethyl-1H-pyrazol-4-yl)-3,4-dihydropyrazino[1,2-a]indol-2(1H)-yl)-6-methylquinoline-3-carboxylic acid]
[1]; [2]
  GI50: 0.25 µM
Mcl-1
  Ki: < 0.0002 µM

## CC(=O)N1CCN(c2ccnc(Cn3c(C(=O)O)cc4cc(C)cc(N5C[C@@H](C)n6c(c(CCCOc7cc(C)c(Cl)c(C)c7)c7ccc(Cl)c(-c8c(C)nn(C)c8C)c76)C5=O)c43)c2)CC1 [Example 552, (R)-1-((4-(4-acetylpiperazin-1-yl)pyridin-2-yl)methyl)-7-(7-chloro-10-(3-(4-chloro-3,5-dimethylphenoxy)propyl)-4-methyl-1-oxo-6-(1,3,5-trimethyl-1H-pyrazol-4-yl)-3,4-dihydropyrazino[1,2-a]indol-2(1H)-yl)-5-methyl-1H-indole-2-carboxylic acid]
[1]; [2]
  GI50: 4.6 µM
Mcl-1
  Ki: < 0.0002 µM

## Cc1ccnc(-n2cnc(-c3ccc4c(c3)c(N3C[C@@H](C)n5c(c(CCCOc6cc(C)c(Cl)c(C)c6)c6ccc(Cl)c(-c7c(C)nn(C)c7C)c65)C3=O)cn4C)n2)n1 [Example 670, (R)-7-Chloro-10-(3-(4-chloro-3,5-dimethylphenoxy)propyl)-4-methyl-2-(1-methyl-5-(1-(4-methylpyrimidin-2-yl)-1H-1,2,4-triazol-3-yl)-1H-indol-3-yl)-6-(1,3,5-trimethyl-1H-pyrazol-4-yl)-3,4-dihydropyrazino[1,2-a]indol-1(2H)-one]
[1]; [2]
  GI50: < 0.2 µM
Mcl-1
  Ki: < 0.0002 µM

## COCCOc1cc(N2C[C@@H](C)n3c(c(CCCOc4cc(C)c(Cl)c(C)c4)c4ccc(Cl)c(-c5c(C)ncnc5C)c43)C2=O)c2c(c1)cc(C(=O)O)n2Cc1cccc(C)n1 [Example 571, (R)-7-(7-chloro-10-(3-(4-chloro-3,5-dimethylphenoxy)propyl)-6-(4,6-dimethylpyrimidin-5-yl)-4-methyl-1-oxo-3,4-dihydropyrazino[1,2-a]indol-2(1H)-yl)-5-(2-methoxyethoxy)-1-((6-methylpyridin-2-yl)methyl)-1H-indole-2-carboxylic acid]
[1]; [2]
  GI50: < 0.2 µM
Mcl-1
  Ki: < 0.0002 µM

## CCN(C)c1cc(N2C[C@@H](C)n3c(c(CCCOc4cc(C)c(Cl)c(C)c4)c4ccc(Cl)c(-c5c(C)nn(C)c5C)c43)C2=O)c2c(c1)cc(C(=O)O)n2C [Example 680, (R)-7-(7-chloro-10-(3-(4-chloro-3,5-dimethylphenoxy)propyl)-4-methyl-1-oxo-6-(1,3,5-trimethyl-1H-pyrazol-4-yl)-3,4-dihydropyrazino[1,2-a]indol-2(1H)-yl)-5-(ethyl(methyl)amino)-1-methyl-1H-indole-2-carboxylic acid]
[1]; [2]
  GI50: 0.61 µM
Mcl-1
  Ki: 0.00033 µM

## Cc1cc(N2C[C@@H](C)n3c(c(CCCOc4cc(C)c(Cl)c(C)c4)c4ccc(Cl)c(-c5c(C)nn(C)c5C)c43)C2=O)c2c(c1)cc(C(=O)O)n2Cc1cc(C2=NCCO2)ccn1 [Example 600, (R)-7-(7-chloro-10-(3-(4-chloro-3,5-dimethylphenoxy)propyl)-4-methyl-1-oxo-6-(1,3,5-trimethyl-1H-pyrazol-4-yl)-3,4-dihydropyrazino[1,2-a]indol-2(1H)-yl)-1-((4-(4,5-dihydrooxazol-2-yl)pyridin-2-yl)methyl)-5-methyl-1H-indole-2-carboxylic acid]
[1]; [2]
  GI50: 2.5 µM
Mcl-1
  Ki: < 0.0002 µM

## C=Cc1cccc(Cn2c(C(=O)O)cc3cc(C)cc(N4C[C@@H](C)n5c(c(CCCOc6cc(C)c(Cl)c(C)c6)c6ccc(Cl)c(-c7c(C)nn(C)c7C)c65)C4=O)c32)n1 [Example 517, (R)-7-(7-Chloro-10-(3-(4-chloro-3,5-dimethylphenoxy)propyl)-4-methyl-1-oxo-6-(1,3,5-trimethyl-1H-pyrazol-4-yl)-3,4-dihydropyrazino[1,2-a]indol-2(1H)-yl)-5-methyl-1-((6-vinylpyridin-2-yl)methyl)-1H-indole-2-carboxylic acid]
[1]; [2]
  GI50: 0.76 µM
Mcl-1
  Ki: 0.00036 µM

## Cc1cc(OCCCc2c3n(c4c(-c5c(C)nn(C)c5C)c(Cl)ccc24)[C@H](C)CN(c2cc(CN4CCCC4)cc4c(C(=O)O)cn(C)c24)C3=O)cc(C)c1Cl [Example 550, (R)-7-(7-chloro-10-(3-(4-chloro-3,5-dimethylphenoxy)propyl)-4-methyl-t-oxo-6-(1,3,5-trimethyl-1H-pyrazol-4-yl)-3,4-dihydropyrazino[1,2-a]indol-2(1H)-yl)-1-methyl-5-(pyrrolidin-1-ylmethyl)-1H-indole-3-carboxylic acid]
[1]; H929 cells, 72 h, Cell TiterGlo, 10% FBS, read-out: GI50 on cellular proliferation of H929 human cancer cell lines
  GI50: 1.2 µM
Mcl-1
  Ki: 0.00052 µM

## Cc1cc(OCCCc2c3n(c4c(-c5c(C)nn(C)c5C)c(Cl)ccc24)[C@H](C)CN(c2cn(Cc4ccc(F)c(F)c4)c4ccc(C(=O)O)cc24)C3=O)cc(C)c1Cl [Example 645, (R)-3-(7-chloro-10-(3-(4-chloro-3,5-dimethylphenoxy)propyl)-4-methyl-1-oxo-6-(1,3,5-trimethyl-1H-pyrazol-4-yl)-3,4-dihydropyrazino[1,2-a]indol-2(1H)-yl)-1-(3,4-difluorobenzyl)-1H-indole-5-carboxylic acid]
[1]; [2]
  GI50: 3.7 µM
Mcl-1
  Ki: 0.0033 µM

## COCCn1c(C(=O)O)cc2c(OC)ccc(N3C[C@@H](C)n4c(c(CCCOc5cc(C)c(Cl)c(C)c5)c5ccc(Cl)c(-c6c(C)ncnc6C)c54)C3=O)c21 [Example 493, (R)-7-(7-chloro-10-(3-(4-chloro-3,5-dimethylphenoxy)propyl)-6-(4,6-dimethylpyrimidin-5-yl)-4-methyl-1-oxo-3,4-dihydropyrazino[1,2-a]indol-2(1H)-yl)-4-methoxy-1-(2-methoxyethyl)-1H-indole-2-carboxylic acid]
[1]; [2]
  GI50: < 0.2 µM
Mcl-1
  Ki: < 0.0002 µM

## Cc1cc(OCCCc2c3n(c4c(-c5c(C)nn(C)c5C)c(Cl)ccc24)[C@H](C)CN(c2cn(CC(=O)N4CCOCC4)c4ccc(-c5ncn(C)n5)cc24)C3=O)cc(C)c1Cl [Example 525, (R)-7-Chloro-10-(3-(4-chloro-3,5-dimethylphenoxy)propyl)-4-methyl-2-(5-(1-methyl-1H-1,2,4-triazol-3-yl)-1-(2-morpholino-2-oxoethyl)-1H-indol-3-yl)-6-(1,3,5-trimethyl-1H-pyrazol-4-yl)-3,4-dihydropyrazino[1,2-a]indol-1(2H)-one]
[1]; [2]
  GI50: 0.33 µM
Mcl-1
  Ki: 0.00041 µM

## Cc1cc(OCCCc2c3n(c4c(-c5c(C)nn(C)c5C)c(Cl)ccc24)[C@H](C)CN(c2cccc4c(C(=O)O)c5n(c24)CCN(C)C5=O)C3=O)cc(C)c1Cl [Example 562, (R)-7-chloro-10-(3-(4-chloro-3,5-dimethylphenoxy)propyl)-2′,4-dimethyl-1,1′-dioxo-6-(1,3,5-trimethyl-1H-pyrazol-4-yl)-1′,2′,3,3′,4,4′-hexahydro-1H-[2,6′-bipyrazino[1,2-a]indole]-10′-carboxylic acid]
[1]; [2]
  GI50: 1.2 µM
Mcl-1
  Ki: 0.00097 µM
